Reference: ChEMBL document CHEMBL1201862, “PubChem BioAssay data set” (2004)
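In this assay, cells in 96-well plates receive the compound at five concentrations for 48 hours. Endpoints are linearly interpolated between the surrounding concentrations. Here, GI50 denotes the concentration required for 50% inhibition of growth.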 The source made the active and inactive calls. Rule as the data show it: active = GI50 up to about 1.1 µM and inactive = higher.

How the values were obtained:
Experiment in all cases: DTP human tumour cell line panel, 48 h
[1] = tested on: NCI-H226
[2] = tested on: NCI/ADR-RES
[3] = tested on: SW-620
[4] = tested on: A498
[5] = tested on: NCI-H522
[6] = tested on: KM12
[7] = tested on: PC-3
[8] = tested on: CAKI-1
[9] = tested on: SNB-19
[10] = tested on: T47D
[11] = tested on: COLO 205
[12] = tested on: UACC-62
[13] = tested on: SF-295
[14] = tested on: OVCAR-5
[15] = tested on: SN12C
[16] = tested on: Malme-3M
[17] = tested on: 786-0
[18] = tested on: Hs-578T
[19] = tested on: SF-268
[20] = tested on: SNB-75
[21] = tested on: HCT-116
[22] = tested on: SK-OV-3
[23] = tested on: NCI-H23
[24] = tested on: BT-549
[25] = tested on: HOP-62
[26] = tested on: MCF7
[27] = tested on: SK-MEL-2
[28] = tested on: HOP-92
[29] = tested on: SK-MEL-5
[30] = tested on: HT-29
[31] = tested on: TK-10
[32] = tested on: OVCAR-3
[33] = tested on: A549
[34] = tested on: U-251
[35] = tested on: SK-MEL-28
[36] = tested on: RXF 393
[37] = tested on: IGROV-1
[38] = tested on: K562
[39] = tested on: UACC-257
[40] = tested on: SR
[41] = tested on: UO-31
[42] = tested on: CCRF-CEM
[43] = tested on: MOLT-4
[44] = tested on: HCT-15
[45] = tested on: MDA-MB-435
[46] = tested on: DU-145
[47] = tested on: EKVX
[48] = tested on: M14
[49] = tested on: HL-60
[50] = tested on: MDA-N
[51] = tested on: SF-539
[52] = tested on: OVCAR-8
[53] = tested on: HCC 2998
[54] = tested on: ACHN
[55] = tested on: RPMI-8226
[56] = tested on: NCI-H460
[57] = tested on: MDA-MB-231
[58] = tested on: OVCAR-4

Compound: O=c1[nH]c2nc[nH]c2c(=O)n1C1CCCCC1
- GI50 [1]: > 100 µM (inactive)
- GI50 [2]: > 100 µM (inactive)
- GI50 [3]: > 100 µM (inactive)
- GI50 [4]: > 100 µM (inactive)
- GI50 [5]: > 100 µM (inactive)
- GI50 [6]: > 100 µM (inactive)
- GI50 [7]: > 100 µM (inactive)
- GI50 [8]: > 100 µM (inactive)
- GI50 [9]: > 100 µM (inactive)
- GI50 [10]: > 100 µM (inactive)
- GI50 [11]: > 100 µM (inactive)
- GI50 [12]: > 100 µM (inactive)
- GI50 [13]: > 100 µM (inactive)
- GI50 [14]: > 100 µM (inactive)
- GI50 [15]: > 100 µM (inactive)
- GI50 [16]: > 100 µM (inactive)
- GI50 [17]: > 100 µM (inactive)
- GI50 [18]: > 100 µM (inactive)
- GI50 [19]: > 100 µM (inactive)
- GI50 [20]: > 100 µM (inactive)
- GI50 [21]: > 100 µM (inactive)
- GI50 [22]: > 100 µM (inactive)
- GI50 [23]: > 100 µM (inactive)
- GI50 [24]: > 100 µM (inactive)
- GI50 [25]: > 100 µM (inactive)
- GI50 [26]: > 100 µM (inactive)
- GI50 [27]: 72.9 µM (inactive)
- GI50 [28]: > 100 µM (inactive)
- GI50 [29]: > 100 µM (inactive)
- GI50 [30]: > 100 µM (inactive)
- GI50 [31]: > 100 µM (inactive)
- GI50 [32]: > 100 µM (inactive)
- GI50 [33]: > 100 µM (inactive)
- GI50 [34]: > 100 µM (inactive)
- GI50 [35]: > 100 µM (inactive)
- GI50 [36]: > 100 µM (inactive)
- GI50 [37]: > 100 µM (inactive)
- GI50 [38]: > 100 µM (inactive)
- GI50 [39]: > 100 µM (inactive)
- GI50 [40]: > 100 µM (inactive)
- GI50 [41]: > 100 µM (inactive)
- GI50 [42]: > 100 µM (inactive)
- GI50 [43]: > 100 µM (inactive)
- GI50 [44]: > 100 µM
- GI50 [45]: > 100 µM (inactive)
- GI50 [46]: > 100 µM (inactive)
- GI50 [47]: > 100 µM (inactive)
- GI50 [48]: > 100 µM (inactive)
- GI50 [49]: 6.01 µM (inactive)
- GI50 [50]: > 100 µM (inactive)
- GI50 [51]: > 100 µM (inactive)
- GI50 [52]: > 100 µM (inactive)
- GI50 [53]: > 100 µM (inactive)
- GI50 [54]: > 100 µM (inactive)
- GI50 [55]: > 100 µM (inactive)
- GI50 [56]: > 100 µM (inactive)
- GI50 [57]: > 100 µM (inactive)
- GI50 [58]: > 100 µM (inactive)
